{"source": "BindingDB's records for doi:10.1021/jm000290u", "about": "(Purdue University, 2001)"}
{"target": "Human immunodeficiency virus 2", "test": "In vitro inhibition of cytopathic effect was determined against HIV-2 ROD in MT-4 cells using MTT cytoprotection assay", "units": {"EC50": "µM"}}
{"molecule": "CC(C)CCCC(C)[C@H]1CCC2C3CCC4C[C@@H](CCC=C(c5cc(Cl)c(OCc6ccc(C(=O)O)cc6)c(C(=O)O)c5)c5cc(Cl)c(OCc6ccc(C(=O)O)cc6)c(C(=O)O)c5)CC[C@]4(C)C3CC[C@@]21C", "note": "(stereo not given in full) [Cosalane analogue]", "EC50": 22}
{"molecule": "CC(C)CCCC(C)[C@H]1CCC2C3CCC4C[C@@H](CCC=C(c5cc(Cl)c(OCc6cccc(C(=O)O)c6)c(C(=O)O)c5)c5cc(Cl)c(OCc6cccc(C(=O)O)c6)c(C(=O)O)c5)CC[C@]4(C)C3CC[C@@]21C", "note": "(stereo not given in full) [Cosalane analogue]", "EC50": "> 29"}
{"molecule": "CC(C)CCCC(C)[C@H]1CCC2C3CCC4C[C@@H](CCC=C(c5cc(Cl)c(OCc6ccccc6C(=O)O)c(C(=O)O)c5)c5cc(Cl)c(OCc6ccccc6C(=O)O)c(C(=O)O)c5)CC[C@]4(C)C3CC[C@@]21C", "note": "(stereo not given in full) [Cosalane analogue]", "EC50": "> 37"}
{"molecule": "CC(C)CCCC(C)[C@H]1CCC2C3CCC4C[C@@H](CCCC(c5cc(Cl)c(OCc6ccc(C(=O)O)cc6)c(C(=O)O)c5)c5cc(Cl)c(OCc6ccc(C(=O)O)cc6)c(C(=O)O)c5)CC[C@]4(C)C3CC[C@@]21C", "note": "(stereo partly drawn) [3'',3'''-Dichloro-5'',5'''-dicarboxy-4'',4'''-di[p-carboxybenzyloxy]-4',4'-diphenyl-3beta-(1-butyl)cholestane]", "EC50": 70.4}
{"molecule": "CC(C)CCCC(C)[C@H]1CCC2C3CCC4C[C@@H](CCC=C(c5cc(Cl)c(O)c(C(=O)N[C@@H](CCC(=O)O)C(=O)O)c5)c5cc(Cl)c(O)c(C(=O)N[C@@H](CCC(=O)O)C(=O)O)c5)CC[C@]4(C)C3CC[C@@]21C", "note": "(stereo not given in full) [2-(3-Chloro-5-{1-[3-chloro-5-(1,3-dicarboxy-propylcarbamoyl)-4-hydroxy-phenyl]-4-[17-(1,5-dimethyl-hexyl)-10,13-dimethyl-hexadecahydro-cyclopenta[a]phenanthren-3-yl]-but-1-enyl}-2-hydroxy-benzoylamino)-pentanedioic acid]", "EC50": 69.6}
{"molecule": "COc1c(Cl)cc(Cc2cc(C(=CCC[C@H]3CC[C@@]4(C)C(CCC5C4CC[C@@]4(C)C5CC[C@@H]4C(C)CCCC(C)C)C3)c3cc(Cc4cc(Cl)c(OC)c(C(=O)O)c4)c(OC)c(C(=O)O)c3)cc(C(=O)O)c2OC)cc1C(=O)O", "note": "(stereo not given in full) [Cosalane analogue]", "EC50": 19.9}
{"molecule": "CC(C)CCCC(C)[C@H]1CCC2C3CCC4C[C@@H](CCCC(c5cc(Cl)c(O)c(C(=O)N[C@@H](CCC(=O)O)C(=O)O)c5)c5cc(Cl)c(O)c(C(=O)N[C@@H](CCC(=O)O)C(=O)O)c5)CC[C@]4(C)C3CC[C@@]21C", "note": "(stereo not given in full) [2-(3-Chloro-5-{1-[3-chloro-5-(1,3-dicarboxy-propylcarbamoyl)-4-hydroxy-phenyl]-4-[17-(1,5-dimethyl-hexyl)-10,13-dimethyl-hexadecahydro-cyclopenta[a]phenanthren-3-yl]-butyl}-2-hydroxy-benzoylamino)-pentanedioic acid]", "EC50": 73}
{"molecule": "CC(C)CCCC(C)[C@H]1CCC2C3CCC4C[C@@H](CCC=C(c5cc(Cl)c(O)c(C(=O)N[C@@H](CC(=O)O)C(=O)O)c5)c5cc(Cl)c(O)c(C(=O)N[C@@H](CC(=O)O)C(=O)O)c5)CC[C@]4(C)C3CC[C@@]21C", "note": "(stereo partly drawn) [(S)-2-(3-Chloro-5-{1-[3-chloro-5-((S)-1,2-dicarboxy-ethylcarbamoyl)-4-hydroxy-phenyl]-4-[(3S,10S,13R,17R)-17-(1,5-dimethyl-hexyl)-10,13-dimethyl-hexadecahydro-cyclopenta[a]phenanthren-3-yl]-but-1-enyl}-2-hydroxy-benzoylamino)-succinic acid]", "EC50": 122}
{"molecule": "CC(C)CCCC(C)[C@H]1CCC2C3CCC4C[C@@H](CCC=C(c5cc(Cl)c(OCc6ccc(-c7cccc(C(=O)O)c7)cc6)c(C(=O)O)c5)c5cc(Cl)c(OCc6ccc(-c7cccc(C(=O)O)c7)cc6)c(C(=O)O)c5)CC[C@]4(C)C3CC[C@@]21C", "note": "(stereo partly drawn) [3'',3'''-Dichloro-5'',5'''-dicarboxy-4'',4'''-di[p-(3-carboxy-phenyl)benzyloxy]-4',4'-diphenyl-3beta-(3'-buten-1-yl)cholestane]", "EC50": "> 95"}
{"molecule": "CC(C)CCCC(C)[C@H]1CCC2C3CCC4C[C@@H](CCC=C(c5cc(Cl)c(O)c(C(=O)N[C@@H](Cc6ccccc6)C(=O)O)c5)c5cc(Cl)c(O)c(C(=O)N[C@@H](Cc6ccccc6)C(=O)O)c5)CC[C@]4(C)C3CC[C@@]21C", "note": "(stereo partly drawn) [2-(5-{1-{3-[1-carboxy-2-phenyl-(1S)-ethylcarbamoyl]-5-chloro-4-hydroxyphenyl}-4-[1-(1,5-dimethylhexyl)-9a,11a-dimethylperhydrocyclopenta[a]phenanthren-7-yl]-1-butenyl}-3-chloro-2-hydroxyphenylcarboxamido)-3-phenyl-(2S)-propanoic acid]", "EC50": "> 62"}
{"molecule": "CC(C)CCCC(C)[C@H]1CCC2C3CCC4C[C@@H](CCC=C(c5cc(Cl)c(O)c(C(=O)O)c5)c5cc(Cl)c(O)c(C(=O)O)c5)CC[C@]4(C)C3CC[C@@]21C", "note": "(stereo partly drawn) [5-{1-(3-carboxy-5-chloro-4-hydroxyphenyl)-4-[1-(1,5-dimethylhexyl)-9a,11a-dimethyl-(9aS,11aR)-perhydrocyclopenta[a]phenanthren-7-yl]-1-butenyl}-3-chloro-2-hydroxybenzoic acid]", "EC50": 4}
{"molecule": "CC(C)CCCC(C)[C@H]1CCC2C3CCC4C[C@@H](CCC=C(c5cc(Cl)c(OCc6ccc(CC(=O)O)cc6)c(C(=O)O)c5)c5cc(Cl)c(OCc6ccc(CC(=O)O)cc6)c(C(=O)O)c5)CC[C@]4(C)C3CC[C@@]21C", "note": "(stereo partly drawn) [3'',3'''-Dichloro-5'',5'''-dicarboxy-4'',4'''-di[p-(carboxymethyl)benzyloxy]-4',4'-diphenyl-3beta-(3'-buten-1-yl)cholestane]", "EC50": 83.8}
{"molecule": "CC(C)CCCC(C)[C@H]1CCC2C3CCC4C[C@@H](CCC=C(c5cc(Cl)c(OCc6ccc(-c7ccc(C(=O)O)cc7)cc6)c(C(=O)O)c5)c5cc(Cl)c(OCc6ccc(-c7ccc(C(=O)O)cc7)cc6)c(C(=O)O)c5)CC[C@]4(C)C3CC[C@@]21C", "note": "(stereo partly drawn) [3'',3'''-Dichloro-5'',5'''-dicarboxy-4'',4'''-di[p-(4-carboxy-phenyl)benzyloxy]-4',4'-diphenyl-3beta-(3'-buten-1-yl)cholestane]", "EC50": "> 100"}
{"molecule": "CC(C)CCCC(C)[C@H]1CCC2C3CCC4C[C@@H](CCC=C(c5cc(Cl)c(O)c(C(=O)NCCC(=O)O)c5)c5cc(Cl)c(O)c(C(=O)NCCC(=O)O)c5)CC[C@]4(C)C3CC[C@@]21C", "note": "(stereo not given in full) [3-(5-{1-[3-(2-Carboxy-ethylcarbamoyl)-5-chloro-4-hydroxy-phenyl]-4-[17-(1,5-dimethyl-hexyl)-10,13-dimethyl-hexadecahydro-cyclopenta[a]phenanthren-3-yl]-but-1-enyl}-3-chloro-2-hydroxy-benzoylamino)-propionic acid]", "EC50": 120}
{"molecule": "COc1ccc(C(=O)Nc2cc(C(=CCC[C@H]3CC[C@@]4(C)C(CCC5C4CC[C@@]4(C)C5CC[C@@H]4C(C)CCCC(C)C)C3)c3cc(NC(=O)c4ccc(OC)c(C(=O)O)c4)c(OC)c(C(=O)O)c3)cc(C(=O)O)c2OC)cc1C(=O)O", "note": "(stereo not given in full) [Cosalane analogue]", "EC50": "> 66"}
